Experiment [1] has as its system U-937. The experiment can be described thus: Decrease in basal TNFalpha release in human U937 cells after 1 hr by ELISA. The format is functional, cell-based.
In experiment [2] the test system is U-937. Nature of the experiment: Decrease in LPS-induced TNFalpha release in human U937 cells after 1 hr by ELISA. It is filed as functional, cell-based. For orientation: ELISA stands for enzyme-linked immunosorbent assay.
Experiment [3] has as its system U-937. Nature of the experiment: Inhibition of basal TNFalpha release in human U937 cells at 2 uM after 1 hr by ELISA. It is filed as functional, cell-based.
The test system of experiment [4] is U-937. The experiment can be described thus: Inhibition of LPS-induced TNFalpha release in human U937 cells at 2 uM after 1 hr by ELISA. The format is functional, cell-based.
The test system of another experiment is Mast cell. Nature of the experiment: Inhibition of antigen-induced IL6 secretion in mouse mast cells at 1 uM after 24 hrs by ELISA. It is filed as functional, cell-based.
For a further experiment, the species on record is Homo sapiens. The experiment can be described thus: Inhibition of antigen-induced histamine release in human basophils at 1 uM after 30 mins. It is filed as functional.
Experiment [5] has as its system BMMC. Nature of the experiment: Inhibition of antigen-induced histamine release in wild-type BMMCs at 1 uM after 30 mins. The format is functional, cell-based. The note with it: Mus musculus.
Experiment [6] has as its system BMMC. Nature of the experiment: Inhibition of antigen-induced histamine release in Tec-deficient BMMC at 1 uM after 30 mins. The format is functional, cell-based. The following applies: Mus musculus.

Data on 1 compound can be found in ChEMBL document CHEMBL1147060.

Activity calls are given as the source filed them. No cut-off for these calls is given here.

Take `Cc1nc(Nc2ncc(C(=O)Nc3c(C)cccc3Cl)s2)cc(N2CCN(CCO)CC2)n1`: the outcome in the experiment with U-937 [1], with U-937 [2], with Mast cell, in the experiment filed under Homo sapiens, in the experiment with BMMC [5] and in the experiment on BMMC [6] was Active. The result in the experiment with U-937 [3] and in the experiment with U-937 [4] was inactive.
